From patent US6737383B1, “Herbicidal oxadiazolidines” (priority 1999, dated 2004)

What was measured:
[1] = test system: Pioneer hybrid P33G26 corn; experiment: Test H corn injury, herbicide and safener mixtures applied to soil; assay type: in vivo; conditions: safeners for Compound 113
Protocol: Mixtures of the herbicide and safeners were applied to pots of a soil mixture previously sown with corn. Pioneer hybrid P33G26 corn was sown in pots containing a sterile mix of 60% sassafras soil and 40% Metro Mix 360® growing medium (pH 6.7, O.M. 2%). Test compounds were dissolved in AGWT (a mixture of 0.25% Tween 20 surfactant, 5% water, 5% glycerin and 89.75% acetone) and sprayed on the soil as pots passed under a stationary 8002E nozzle. Treatments were applied at a 33 gal/acre rate of the AGWT carrier. After treatment, the test pots were placed in the greenhouse and watered. There were two replications for each treatment. Each pot contained eight corn seeds. The pots within each replication were placed in random positions on greenhouse benches. Test plants were fertilized as they were watered with approximately 200 ppm of N (as water soluble 20-20-20 fertilizer) which was metered into the water lines with a fertilizer injector. Daytime temperatures was 23-30° C. and night time temperature was 18-25° C. The test plants were supplemented with artificial lighting. The lights were activated whenever the natural light intensity dropped below the programmed threshold. Day length was maintained for approximately 14 hours.
The test was evaluated approximately 12 days after treatment. […]

maize hybrid P33G26 = experiment: Test G maize injury with safener-treated seed; conditions: presence of dichlormid; with the exception of Compound 131 at the rate of 560 g/ha
Protocol: In soil-containing pots were planted seeds of maize hybrid P33G26 that was previously treated with dichlomid, fenchlorazole-ethyl, and naphthalic anhydride (or no safener). The soil surface was then treated with several rates of Compound 131 or Compound 146 dissolved in a non-phytotoxic solvent using a flat-fan sprayer calibrated to deliver 310 L/ha. Treatmemtes were replicated 4 or 5 times. The treated and untreated plants were allowed to grow in a greenhouse using supplementary artificial lighting with a day-length of 14 hours, with the temperature maintained at about 27° C. during the day and 24° C. during the night. Plants were kept watered with a dilute balanced fertilizer solution.
At 28 days after application, the treated plants were compared with untreated controls and vissually evaluated.

morningglory = experiment: Test A morningglory; assay type: in vivo, Ipomoea spp.; conditions: 0 to 10 scale where 0 is no effect and 10 is complete control
In short: (§1)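 Injury scored visually after about eleven greenhouse days against untreated plants, 0 = no effect, 10 = complete control. Compounds, formulated in surfactant-containing non-phytotoxic solvent, were applied as preemergence soil drench to sandy loam plantings and as postemergence runoff spray at the 1–2 leaf stage.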

barnyardgrass = experiment: Test A barnyardgrass; assay type: in vivo, Echinochloa crus-galli; conditions: 0 to 10 scale where 0 is no effect and 10 is complete control
In short: as §1

crabgrass = experiment: Test A crabgrass; assay type: in vivo, Digitaria spp.; conditions: 0 to 10 scale where 0 is no effect and 10 is complete control
Protocol: Seeds of barnyardgrass (Echinochloa crus-galli), crabgrass (Digitaria spp.), morningglory (Ipomoea spp.), and velvetleaf (Abutilon theophrasti) were planted into a sandy loam soil and treated preemergence by soil drench with test chemicals formulated in a non-phytotoxic solvent mixture which includes a surfactant At the same time, these crop and weed species were also treated postemergence sprayed to runoff, with test chemicals formulated in the same manner.
Plants ranged in height from two to eighteen cm and were in the one to two leaf stage for the postemergence treatment. Treated plants and untreated controls were maintained in a greenhouse for approximately eleven days, after which all treated plants were compared to untreated controls and visually evaluated for injury. Plant response ratings, summarized in Table A, are based on a 0 to 10 scale where 0 is no effect and 10 is complete control.

velvetleaf = experiment: Test A velvetleaf; assay type: in vivo, Abutilon theophrasti; conditions: 0 to 10 scale where 0 is no effect and 10 is complete control
In short: as §1

C=CCN(CC=C)C(=O)C(Cl)Cl [dichlormid, reference compound]
Safening of Compound 113 on corn [1]: functioned very effectively as safeners | Safening effect on maize injury (maize hybrid P33G26): reduced the injury to an insignificant level

CC(C)N(C(=O)n1oc(=O)[nH]c1=O)c1ccccc1 [Compound 386]
Plant response rating, Morningglory (morningglory; Postemergence, Rate 1000 g/ha): 0 | Plant response rating, Morningglory (morningglory; Pre-emergence, Rate 2000 g/ha): 0 | Plant response rating, Barnyardgrass (barnyardgrass; Postemergence, Rate 1000 g/ha): 0 | Plant response rating, Barnyardgrass (barnyardgrass; Pre-emergence, Rate 2000 g/ha): 0 | Plant response rating, Crabgrass (crabgrass; Postemergence, Rate 1000 g/ha): 0 | Plant response rating, Crabgrass (crabgrass; Pre-emergence, Rate 2000 g/ha): 0 | melting point: 116 to 117 °C | Plant response rating, Velvetleaf (velvetleaf; Postemergence, Rate 1000 g/ha): 0 | Plant response rating, Velvetleaf (velvetleaf; Pre-emergence, Rate 2000 g/ha): 0
